Data as given in PMC6150173, “Tryptophan-Containing Cyclic Decapeptides with Activity against Plant Pathogenic Bacteria” (Molecules : A Journal of Synthetic Chemistry and Natural …, 2017).
Peptide text beside a SMILES is read from it.

Tests used:
Assay type in all cases: cell-based
[1] = tested on: Erwinia amylovora PMV6076; assay: Antibacterial activity (MIC), in vitro growth inhibition; conditions: Table S1, MIC range
Method in brief: (§1)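 MIC determined by in vitro growth inhibition across 0.8, 1.6, 3.1, 6.2, 12.5, 25 and 50 μM peptide. Strains tested: E. amylovora PMV6076, P. syringae pv. syringae EPS94 and X. axonopodis pv. vesicatoria 2133-2.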

[2] = tested on: Pseudomonas syringae pv. syringae EPS94; assay: as above; conditions: Table S1, MIC range
Method in brief: as §1

[3] = tested on: Xanthomonas axonopodis pv. vesicatoria 2133-2; conditions: Table S1, MIC range
Method in brief: as §1

[4] = tested on: erythrocyte suspensions of human blood; assay: Hemolytic activity, hemoglobin release; conditions: human blood erythrocytes 5% v/v, absorbance 540 nm, percentage compared to melittin, three replicates; for Hemolysis (%) at 50 µM: peptide 50 μM (table prints 50 µM); for Hemolysis (%) at 125 µM: peptide 125 μM (table prints 125 µM)
Procedure: The hemolytic activity of the compounds was evaluated at 50 and 125 μM by determining hemoglobin release from erythrocyte suspensions of human blood (5% v/v) (Oxoid) using absorbance at 540 nm, as previously described. Three replicates for each peptide concentration were used.

Structure (SMILES) | MIC Ea [1] | MIC Pss [2] | MIC Xav [3] | Hemolysis (%) at 50 µM [4] | Hemolysis (%) at 125 µM [4]
CC(C)C[C@@H]1NC(=O)[C@H](CCCCN)NC(=O)[C@H](CCCCN)NC(=O)[C@H](CCC(N)=O)NC(=O)[C@H](CCCCN)NC(=O)[C@H](CC(C)C)NC(=O)[C@H](CC(C)C)NC(=O)[C@H](Cc2c[nH]c3ccccc23)NC(=O)[C@H](CCCCN)NC(=O)[C@H](CCCCN)NC1=O [BPC104W, c(KKLKKWLLKQ)] (cyclo(KKLKKWLLKQ)) | 12.5 to 25 µM | 6.2 to 12.5 µM | 6.2 to 12.5 µM | 2% | 3%
CC(C)C[C@@H]1NC(=O)[C@H](CCCCN)NC(=O)[C@H](CCCCN)NC(=O)[C@H](Cc2c[nH]c3ccccc23)NC(=O)[C@H](CCCCN)NC(=O)[C@H](CC(C)C)NC(=O)[C@H](CC(C)C)NC(=O)[C@H](CCCCN)NC(=O)[C@H](CC(C)C)NC(=O)[C@H](CCC(N)=O)NC1=O [BPC192W, c(LKLLKWKKLQ)] (cyclo(KKLQLKLLKW)) | 25 to 50 µM | 12.5 to 25 µM | 6.2 to 12.5 µM | 13% | 17%
CC(C)C[C@@H]1NC(=O)[C@H](CCCCN)NC(=O)[C@H](CCCCN)NC(=O)[C@H](Cc2c[nH]c3ccccc23)NC(=O)[C@H](CCCCN)NC(=O)[C@H](CC(C)C)NC(=O)[C@H](CCCCN)NC(=O)[C@H](CC(C)C)NC(=O)[C@H](CCCCN)NC(=O)[C@H](CCC(N)=O)NC1=O [BPC090W, c(KLKLKWKKLQ)] (cyclo(KKLQKLKLKW)) | 12.5 to 25 µM | 6.2 to 12.5 µM | 1.6 to 3.1 µM | 9% | 15%
CC(C)C[C@@H]1NC(=O)[C@H](CCCCN)NC(=O)[C@H](CCCCN)NC(=O)[C@H](Cc2c[nH]c3ccccc23)NC(=O)[C@H](CCCCN)NC(=O)[C@H](CCCCN)NC(=O)[C@H](CCCCN)NC(=O)[C@H](CC(C)C)NC(=O)[C@H](CCCCN)NC(=O)[C@H](CCC(N)=O)NC1=O [BPC198W, c(KLKKKWKKLQ)] (cyclo(KKKWKKLQKL)) | 25 to 50 µM | 25 to 50 µM | 3.1 to 6.2 µM | 2% | 4%
CC(C)C[C@@H]1NC(=O)[C@H](CCC(N)=O)NC(=O)[C@H](CCCCN)NC(=O)[C@H](CCCCN)NC(=O)[C@H](CC(C)C)NC(=O)[C@H](Cc2c[nH]c3ccccc23)NC(=O)[C@H](CCCCN)NC(=O)[C@H](CCCCN)NC(=O)[C@H](CCCCN)NC(=O)[C@H](CC(C)C)NC1=O [BPC146W, c(LLKKKWLKKQ)] (cyclo(KKKWLKKQLL)) | 25 to 50 µM | 3.1 to 6.2 µM | 3.1 to 6.2 µM | 4% | 7%
CC(C)C[C@@H]1NC(=O)[C@H](CCCCN)NC(=O)[C@H](CC(C)C)NC(=O)[C@H](Cc2c[nH]c3ccccc23)NC(=O)[C@H](CCCCN)NC(=O)[C@H](CC(C)C)NC(=O)[C@H](CCCCN)NC(=O)[C@H](CCCCN)NC(=O)[C@H](CCCCN)NC(=O)[C@H](CCC(N)=O)NC1=O [BPC072W, c(KKKLKWLKLQ)] (cyclo(KKKLKWLKLQ)) | 12.5 to 25 µM | 3.1 to 6.2 µM | 1.6 to 3.1 µM | 7% | 9% and below 20%
CC(C)C[C@@H]1NC(=O)[C@H](CCCCN)NC(=O)[C@H](CCCCN)NC(=O)[C@H](Cc2c[nH]c3ccccc23)NC(=O)[C@H](CCCCN)NC(=O)[C@H](CCCCN)NC(=O)[C@H](CCCCN)NC(=O)[C@H](CC(C)C)NC(=O)[C@H](CC(C)C)NC(=O)[C@H](CCC(N)=O)NC1=O [BPC098W, c(LLKKKWKKLQ)] (cyclo(KKKWKKLQLL)) | 12.5 to 25 µM | 3.1 to 6.2 µM | 1.6 to 3.1 µM | 12% | 18% and below 20%
CC(C)C[C@@H]1NC(=O)[C@H](CCC(N)=O)NC(=O)[C@H](CCCCN)NC(=O)[C@H](CC(C)C)NC(=O)[C@H](CCCCN)NC(=O)[C@H](Cc2c[nH]c3ccccc23)NC(=O)[C@H](CC(C)C)NC(=O)[C@H](CCCCN)NC(=O)[C@H](CCCCN)NC(=O)[C@H](CCCCN)NC1=O [BPC116W, c(LKKKLWKLKQ)] (cyclo(KKKLWKLKQL)) | 12.5 to 25 µM | 3.1 to 6.2 µM | 3.1 to 6.2 µM | 9% | 14%
CC(C)C[C@@H]1NC(=O)[C@H](CCCCN)NC(=O)[C@H](CCCCN)NC(=O)[C@H](Cc2c[nH]c3ccccc23)NC(=O)[C@H](CC(C)C)NC(=O)[C@H](CC(C)C)NC(=O)[C@H](CCCCN)NC(=O)[C@H](CCCCN)NC(=O)[C@H](CCCCN)NC(=O)[C@H](CCC(N)=O)NC1=O [BPC080W, c(KKKLLWKKLQ)] (cyclo(KKKLLWKKLQ)) | 12.5 to 25 µM | 6.2 to 12.5 µM | 0.8 to 1.6 µM | 3% | 4%
CC(C)C[C@@H]1NC(=O)[C@H](CCCCN)NC(=O)[C@H](CCC(N)=O)NC(=O)[C@H](CCCCN)NC(=O)[C@H](CC(C)C)NC(=O)[C@H](CC(C)C)NC(=O)[C@H](Cc2c[nH]c3ccccc23)NC(=O)[C@H](CCCCN)NC(=O)[C@H](CCCCN)NC(=O)[C@H](CCCCN)NC1=O [BPC106W, c(KLKKKWLLKQ)] (cyclo(KKKWLLKQKL)) | 25 to 50 µM | 3.1 to 6.2 µM | 3.1 to 6.2 µM | 2% | 2%
CC(C)C[C@@H]1NC(=O)[C@H](CCCCN)NC(=O)[C@H](CCCCN)NC(=O)[C@H](CCCCN)NC(=O)[C@H](CCC(N)=O)NC(=O)[C@H](CC(C)C)NC(=O)[C@H](CC(C)C)NC(=O)[C@H](CCCCN)NC(=O)[C@H](Cc2c[nH]c3ccccc23)NC(=O)[C@H](CCCCN)NC1=O [BPC062W, c(KKKLKWKLLQ)] (cyclo(KKKLKWKLLQ)) | 12.5 to 25 µM | 3.1 to 6.2 µM | 6.2 to 12.5 µM | 3% | 4%
CC(C)C[C@@H]1NC(=O)[C@H](CCC(N)=O)NC(=O)[C@H](CCCCN)NC(=O)[C@H](CC(C)C)NC(=O)[C@H](CCCCN)NC(=O)[C@H](Cc2c[nH]c3ccccc23)NC(=O)[C@H](CCCCN)NC(=O)[C@H](CC(C)C)NC(=O)[C@H](CCCCN)NC(=O)[C@H](CCCCN)NC1=O [BPC120W, c(LKKLKWKLKQ)] (cyclo(KKLKWKLKQL)) | 12.5 to 25 µM | 3.1 to 6.2 µM | 1.6 to 3.1 µM | 6% | 9% and below 20%
